# Experimental data: PubChem BioAssay AID1648 (Sanford-Burnham Center for Chemical Genomics, 2009)
# Calls of active or inactive are those of the source. No rule for the calls is given here.
# Biological target: Serine/threonine-protein kinase mTOR (Homo sapiens) (UniProt P42345)
# Experiment: mTOR FRB domain ligand binding – biophysical, NMR (AID 1648)
# Conditions: NMR binding to FRB domain, chemical shift
# Sequence of Serine/threonine-protein kinase mTOR (Homo sapiens) (P42345 2015-2114): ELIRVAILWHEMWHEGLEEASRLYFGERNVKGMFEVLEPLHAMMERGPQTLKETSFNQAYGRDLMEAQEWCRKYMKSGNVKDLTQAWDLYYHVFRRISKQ
row,SMILES,Kd
1,CC(=O)Nn1c(=O)[nH]c2ccccc2c1=O,> 4 mM (inactive)
2,CC(C)Nc1nc2n(c(=O)n1)CCN2C(C)C,> 4 mM (inactive)
3,Nc1ccc(-n2cncn2)cc1,> 4 mM (inactive)
4,OC1CNCc2cc3c(cc21)OCCO3 (configuration not stated),> 4 mM (inactive)
5,CC(=O)Nc1ccc(S(=O)(=O)N2CCN=C2C)cc1,> 4 mM (inactive)
6,Cc1cc(C)n(CC(=O)NC2CCCCC2)n1,> 4 mM (inactive)
7,CCCn1c(S(=O)(=O)O)nc2ccccc21,> 4 mM (inactive)
8,C[C@H]1O[C@@H](O[C@H]2[C@@H](O)C[C@H](O[C@H]3[C@@H](O)C[C@H](O[C@H]4CC[C@]5(C)C6C[C@@H](O)[C@]7(C)[C@@H](C8=CC(=O)OC8)CC[C@]7(O)C6CC[C@@H]5C4)O[C@@H]3C)O[C@@H]2C)C[C@H](O)[C@@H]1O (some centres not stated),> 4 mM (inactive)
9,Cc1c(C)[n+]([O-])c(-c2ccc([N+](=O)[O-])cc2)n1O,> 4 mM (inactive)
10,CC(=O)C1=C(O)C(=O)NC1c1ccccc1 (configuration not stated),> 4 mM (inactive)
11,COc1c(CC=C(C)C)c2c(c3oc(=O)c(-c4ccc(O)cc4)c(O)c13)C=CC(C)(C)O2,> 4 mM (inactive)
12,CC1CC2(NC(=O)NC2=O)C(C)CN1C (configuration not stated),> 4 mM (inactive)
13,Nc1nc(-c2ccc(Cl)cc2)nn1C(=O)c1cccnc1,> 4 mM (inactive)
14,CC(=O)Oc1ccc2c(c1OC(C)=O)OCC1(O)Cc3c(cc(OC(C)=O)c(OC(C)=O)c3OC(C)=O)C21 (configuration not stated),> 4 mM (inactive)
15,NC(=O)CC1Nc2cccc3cccc(c23)NC1=O (configuration not stated),> 4 mM (inactive)
16,Cc1c(C(=O)Nc2ccncc2)oc2c1C(=O)CC(C)(C)C2,> 4 mM (inactive)
17,O=C(NCc1cccnc1)c1ccccn1,> 4 mM (inactive)
18,O=P1(O)c2ccccc2Nc2ccccc21,> 4 mM (inactive)
19,O=c1[nH]cc(COCc2ccccc2)c(=O)[nH]1,> 4 mM (inactive)
20,CN(C)S(=O)(=O)N1CCc2ccccc21,> 4 mM (inactive)
21,O=C1NC(=S)N/C1=C\c1ccccc1,> 4 mM (inactive)

row,SMILES,Kd
1,Cc1cc(O)c(NC(=O)c2ccco2)cc1C,> 4 mM (inactive)
2,O=C(O)C1Cc2ccccc2N1 (configuration not stated),> 4 mM (inactive)
3,C[C@@H]1CC[C@@]2(OC1)OC1CC3C4CC=C5C[C@@H](O)CC[C@]5(C)C4CC[C@]3(C)C1[C@@H]2C (some centres not stated),> 4 mM (inactive)
4,O=C1N=c2ccccc2=C1c1[nH]c(=S)[nH]c1O,> 4 mM (inactive)
5,Cc1ccc2nc(SCC(=O)O)nc(C)c2c1,> 4 mM (inactive)
6,CS(=O)(=O)N1CCN(c2ccccc2F)CC1,> 4 mM (inactive)
7,O=C(Nc1nnc(-c2ccccc2Cl)o1)c1ccco1,> 4 mM (inactive)
8,CN(C)C(=O)Nc1ccc2c(c1)nnn2C,> 4 mM (inactive)
9,O=C(c1ccccc1)c1cncc(Br)c1,> 4 mM (inactive)
10,Cn1c(NCc2ccco2)nc2ccccc21,> 4 mM (inactive)
11,CN(C)CCCN1CNC(=S)NC1,> 4 mM (inactive)
12,CC(=O)Nc1c(Cl)cnn(-c2ccccc2)c1=O,> 4 mM (inactive)
13,O=c1c2ccccc2oc2ccccc12,> 4 mM (inactive)
14,CNC(=O)CC1Sc2ccccc2NC1=O (configuration not stated),> 4 mM (inactive)
15,COc1ccc(C(N)=O)cc1N,> 4 mM (inactive)
16,Cc1c(CO)cnn1-c1ccc(F)cc1,> 4 mM (inactive)
17,O=C(O)C1CCN(C(=O)c2cccs2)CC1,> 4 mM (inactive)
18,O=C1CCc2ccccc2CN1,> 4 mM (inactive)
19,N#Cc1cnc(N2CCCCC2)nc1N,> 4 mM (inactive)
20,CCCCCC1C(=O)CCC1CC(=O)O (configuration not stated),> 4 mM (inactive)
21,COc1ccc(-c2nnc(-c3ccc(N)cc3)o2)cc1,> 4 mM (inactive)

row,SMILES,Kd
1,Cc1nnc(N2CCN(c3ccccc3)CC2)[nH]c1=O,> 4 mM (inactive)
2,Cn1c(CN2CC(c3ccccc3)CC2=O)n[nH]c1=S (configuration not stated),> 4 mM (inactive)
3,O=C1CCCN1c1ccc(S(=O)O)cc1,> 4 mM (inactive)
4,Cc1cc(C(=O)NC(C)c2ccncc2)no1 (configuration not stated),> 4 mM (inactive)
5,S=C(Cc1cccnc1)N1CCOCC1,> 4 mM (inactive)
6,CC(=O)c1sc(NC(=O)C=C(C)C)nc1C,> 4 mM (inactive)
7,Cc1cc(C)n(C2CCS(=O)(=O)C2)n1 (configuration not stated),> 4 mM (inactive)
8,Cc1nn(-c2ccccc2C(=O)O)c(=O)c2ccccc12,> 4 mM (inactive)
9,O=C(O)c1cccnc1,> 4 mM (inactive)
10,CN1CCc2c(sc(N)c2C#N)C1,> 4 mM (inactive)
11,O=C(O)CNC(=O)c1ccccc1,> 4 mM (inactive)
12,CC(=O)O[C@H]1C[C@@H](OC(C)=O)C(C)(C)C2CC(=O)[C@]3(C)C(CC[C@@]4(C)[C@H](C(=O)O)OC(=O)C5OC543)[C@]21C (some centres not stated),> 4 mM (inactive)
13,CC(=O)Nc1nc(C)nc(-c2ccccc2)c1C(C)=O,> 4 mM (inactive)
14,NC[C@H]1O[C@H](O[C@H]2[C@H](O)[C@@H](O[C@H]3O[C@H](CO)[C@@H](O)[C@H](N)[C@H]3O)[C@H](N)C[C@@H]2N)[C@H](N)[C@@H](O)[C@@H]1O,> 4 mM (inactive)
15,CN(c1ccccc1C(=O)N1CCOCC1)S(C)(=O)=O,> 4 mM (inactive)
16,CC(=O)Nc1ccc(-c2cn3ccsc3n2)cc1,> 4 mM (inactive)
17,O=C(c1ccco1)N1C(=O)c2cccc3cccc1c23,> 4 mM (inactive)
18,Cc1nc(N)sc1C(=O)Nc1nccs1,> 4 mM (inactive)
19,Cc1cc(C)c(-c2cc(C(F)(F)F)no2)c(=O)[nH]1,> 4 mM (inactive)
20,Cc1cc(C)n(S(=O)(=O)c2ccc(C)c(C)c2C)n1,> 4 mM (inactive)
21,COc1ccc(-c2c(OC)c3c(OC)c4c(cc3oc2=O)OC(C)(C)C=C4)cc1,> 4 mM (inactive)

row,SMILES,Kd
1,O=C1CSC(c2ccc3c(c2)OCO3)N1 (configuration not stated),> 4 mM (inactive)
2,Clc1ncnc2[nH]ncc12,> 4 mM (inactive)
3,CC(C)[C@@H]1CC[C@@H](C)C[C@H]1O,> 4 mM (inactive)
4,CCOC(=O)c1c(C)cc(O)cc1O,> 4 mM (inactive)
5,Nc1c(Nc2ccccc2)c2ccccc2oc1=O,> 4 mM (inactive)
6,OC[C@H]1O[C@@](CO)(O[C@@H]2O[C@H](CO)[C@@H](O)[C@H](O)[C@H]2O)[C@@H](O[C@@H]2O[C@H](CO)[C@@H](O)[C@H](O)[C@H]2O)[C@@H]1O,> 4 mM (inactive)
7,COc1ccccc1NC(=O)c1snnc1C,> 4 mM (inactive)
8,Nc1nc(-c2cccnc2)nn1C(=O)Cc1ccccc1,> 4 mM (inactive)
9,CN1CCN(C(=O)/C=C\C(=O)O)CC1,> 4 mM (inactive)
10,C/C=C(/C)C(=O)O[C@@H]1Cc2c(ccc3ccc(=O)oc23)OC1(C)C,> 4 mM (inactive)
11,Nc1nc2ccc(S(N)(=O)=O)cc2s1,> 4 mM (inactive)
12,Cc1cc(C)nc(N2CC(=O)N(C)C2=N)n1,> 4 mM (inactive)
13,CSc1ccccc1NC(=O)c1ccncc1,> 4 mM (inactive)
14,NCc1ccc2sccc2c1,> 4 mM (inactive)
15,NCc1oc(-c2ccccc2)cc1C(=O)O,> 4 mM (inactive)
16,Cn1nc(C(=O)NCc2cccnc2)c2ccccc2c1=O,> 4 mM (inactive)
17,O=C1C(=O)N(CN2CCN(CCO)CC2)c2ccccc21,> 4 mM (inactive)
18,OCc1cccc2c1OCCO2,> 4 mM (inactive)
19,CN=C1SC(CC(=O)Nc2ccc(O)cc2)C(=O)N1C (configuration not stated),> 4 mM (inactive)
